In ChEMBL document CHEMBL4507304, “Data for DCP probe TP-021” (2021):

How the values were obtained:
[1] = target: Activin receptor type-1-like (Homo sapiens) (UniProt P37023); details: Compound concentration 1000.0 nM
[2] = target: Protein-tyrosine kinase 6 (Homo sapiens) (UniProt Q13882); details: Compound concentration 1000.0 nM
[3] = target: Serine/threonine-protein kinase BRSK2 (Homo sapiens) (UniProt Q8IWQ3); details: Compound concentration 1000.0 nM
[4] = target: Calcium/calmodulin-dependent protein kinase kinase 2 (Homo sapiens) (UniProt Q96RR4); details: Compound concentration 1000.0 nM
[5] = target: Peripheral plasma membrane protein CASK (Homo sapiens) (UniProt O14936); details: Compound concentration 1000.0 nM
[6] = target: Cyclin-dependent kinase-like 2 (Homo sapiens) (UniProt Q92772); details: Compound concentration 1000.0 nM
[7] = target: Dual specificity protein kinase CLK1 (Homo sapiens) (UniProt P49759); details: Compound concentration 1000.0 nM
[8] = target: Macrophage colony-stimulating factor 1 receptor (Homo sapiens) (UniProt P07333); details: Compound concentration 1000.0 nM
[9] = target: Megakaryocyte-associated tyrosine-protein kinase (Homo sapiens) (UniProt P42679); details: Compound concentration 1000.0 nM
[10] = target: Serine/threonine-protein kinase DCLK1 (Homo sapiens) (UniProt O15075); details: Compound concentration 1000.0 nM
[11] = target: Myotonin-protein kinase (Homo sapiens) (UniProt Q09013); details: Compound concentration 1000.0 nM
[12] = target: Ephrin type-A receptor 1 (Homo sapiens) (UniProt P21709); details: Compound concentration 1000.0 nM
[13] = target: Ephrin type-A receptor 7 (Homo sapiens) (UniProt Q15375); details: Compound concentration 1000.0 nM
[14] = target: Ephrin type-A receptor 8 (Homo sapiens) (UniProt P29322); details: Compound concentration 1000.0 nM
[15] = target: Mitogen-activated protein kinase 4 (Homo sapiens) (UniProt P31152); details: Compound concentration 1000.0 nM
[16] = target: Tyrosine-protein kinase Fgr (Homo sapiens) (UniProt P09769); details: Compound concentration 1000.0 nM
[17] = tested on: Receptor-type tyrosine-protein kinase FLT3 (Homo sapiens), P36888 [D835V]; details: Compound concentration 1000.0 nM
[18] = tested on: Receptor-type tyrosine-protein kinase FLT3 (Homo sapiens), P36888 [D835Y]; details: Compound concentration 1000.0 nM
[19] = target: Interleukin-1 receptor-associated kinase 3 (Homo sapiens) (UniProt Q9Y616); details: Compound concentration 1000.0 nM
[20] = tested on: Mast/stem cell growth factor receptor Kit (Homo sapiens), P10721 [V559D]; details: Compound concentration 1000.0 nM
[21] = target: Leucine-rich repeat serine/threonine-protein kinase 2 (Homo sapiens) (UniProt Q5S007); details: Compound concentration 1000.0 nM
[22] = target: Mitogen-activated protein kinase kinase kinase kinase 2 (Homo sapiens) (UniProt Q12851); details: Compound concentration 1000.0 nM
[23] = target: Microtubule-associated serine/threonine-protein kinase 1 (Homo sapiens) (UniProt Q9Y2H9); details: Compound concentration 1000.0 nM
[24] = target: Mitogen-activated protein kinase kinase kinase 11 (Homo sapiens) (UniProt Q16584); details: Compound concentration 1000.0 nM
[25] = target: Serine/threonine-protein kinase 38 (Homo sapiens) (UniProt Q15208); details: Compound concentration 1000.0 nM
[26] = target: Serine/threonine-protein kinase Nek4 (Homo sapiens) (UniProt P51957); details: Compound concentration 1000.0 nM
[27] = target: Mitogen-activated protein kinase 13 (Homo sapiens) (UniProt O15264); details: Compound concentration 1000.0 nM
[28] = target: Phosphorylase b kinase gamma catalytic chain, skeletal muscle/heart isoform (Homo sapiens) (UniProt Q16816); details: Compound concentration 1000.0 nM
[29] = target: Phosphatidylinositol 4,5-bisphosphate 3-kinase catalytic subunit gamma isoform (Homo sapiens) (UniProt P48736); details: Compound concentration 1000.0 nM
[30] = target: cAMP-dependent protein kinase catalytic subunit beta (Homo sapiens) (UniProt P22694); details: Compound concentration 1000.0 nM
[31] = target: Membrane-associated tyrosine- and threonine-specific cdc2-inhibitory kinase (Homo sapiens) (UniProt Q99640); details: Compound concentration 1000.0 nM
[32] = target: Serine/threonine-protein kinase PLK3 (Homo sapiens) (UniProt Q9H4B4); details: Compound concentration 1000.0 nM
[33] = target: Protein kinase C iota type (Homo sapiens) (UniProt P41743); details: Compound concentration 1000.0 nM
[34] = target: Protein kinase C theta type (Homo sapiens) (UniProt Q04759); details: Compound concentration 1000.0 nM
[35] = target: Serine/threonine-protein kinase D1 (Homo sapiens) (UniProt Q15139); details: Compound concentration 1000.0 nM
[36] = tested on: Proto-oncogene tyrosine-protein kinase receptor Ret (Homo sapiens), P07949 [V804L]; details: Compound concentration 1000.0 nM
[37] = target: SRSF protein kinase 2 (Homo sapiens) (UniProt P78362); details: Compound concentration 1000.0 nM
[38] = target: Tyrosine-protein kinase Tec (Homo sapiens) (UniProt P42680); details: Compound concentration 1000.0 nM
[39] = target: Transient receptor potential cation channel subfamily M member 6 (Homo sapiens) (UniProt Q9BX84); details: Compound concentration 1000.0 nM
[40] = target: Testis-specific serine/threonine-protein kinase 3 (Homo sapiens) (UniProt Q96PN8); details: Compound concentration 1000.0 nM
[41] = target: Serine/threonine-protein kinase VRK2 (Homo sapiens) (UniProt Q86Y07); details: Compound concentration 1000.0 nM
[42] = target: Tyrosine-protein kinase Yes (Homo sapiens) (UniProt P07947); details: Compound concentration 1000.0 nM
[43] = target: 5-hydroxytryptamine receptor 1E (Homo sapiens) (UniProt P28566); details: Compound concentration 10.0 uM
[44] = target: 5-hydroxytryptamine receptor 2A (Homo sapiens) (UniProt P28223); details: Compound concentration 10.0 uM
[45] = target: D(4) dopamine receptor (Homo sapiens) (UniProt P21917); details: Compound concentration 10.0 uM
Sequence of D(4) dopamine receptor (Homo sapiens) (P21917 whole entry): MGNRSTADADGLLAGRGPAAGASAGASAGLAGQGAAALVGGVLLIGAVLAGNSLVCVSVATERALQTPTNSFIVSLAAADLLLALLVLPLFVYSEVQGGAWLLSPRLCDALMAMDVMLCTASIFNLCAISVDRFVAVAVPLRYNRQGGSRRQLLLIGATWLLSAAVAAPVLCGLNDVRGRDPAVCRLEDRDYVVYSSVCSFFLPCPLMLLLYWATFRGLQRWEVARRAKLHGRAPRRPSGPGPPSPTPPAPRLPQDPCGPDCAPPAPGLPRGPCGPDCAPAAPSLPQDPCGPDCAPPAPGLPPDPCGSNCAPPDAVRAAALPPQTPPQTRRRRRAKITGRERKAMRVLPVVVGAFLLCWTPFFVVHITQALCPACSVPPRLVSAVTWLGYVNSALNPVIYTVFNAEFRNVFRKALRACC

Sequence of Activin receptor type-1-like (Homo sapiens) (P37023 whole entry): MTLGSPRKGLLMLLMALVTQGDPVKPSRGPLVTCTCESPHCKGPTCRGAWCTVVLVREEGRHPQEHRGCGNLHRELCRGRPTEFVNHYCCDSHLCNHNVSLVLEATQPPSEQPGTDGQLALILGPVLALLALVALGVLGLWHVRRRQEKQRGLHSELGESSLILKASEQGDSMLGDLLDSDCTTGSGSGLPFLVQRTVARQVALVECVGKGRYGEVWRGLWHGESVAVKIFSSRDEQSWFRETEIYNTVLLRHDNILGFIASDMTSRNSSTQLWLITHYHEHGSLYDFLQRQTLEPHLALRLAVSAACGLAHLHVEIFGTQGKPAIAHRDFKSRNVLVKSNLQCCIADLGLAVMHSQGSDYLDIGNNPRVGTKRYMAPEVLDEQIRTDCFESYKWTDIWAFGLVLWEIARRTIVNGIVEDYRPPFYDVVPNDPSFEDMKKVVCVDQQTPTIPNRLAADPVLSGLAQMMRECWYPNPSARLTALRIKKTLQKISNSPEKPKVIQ
Sequence of Serine/threonine-protein kinase Nek4 (Homo sapiens) (P51957 whole entry, looked up): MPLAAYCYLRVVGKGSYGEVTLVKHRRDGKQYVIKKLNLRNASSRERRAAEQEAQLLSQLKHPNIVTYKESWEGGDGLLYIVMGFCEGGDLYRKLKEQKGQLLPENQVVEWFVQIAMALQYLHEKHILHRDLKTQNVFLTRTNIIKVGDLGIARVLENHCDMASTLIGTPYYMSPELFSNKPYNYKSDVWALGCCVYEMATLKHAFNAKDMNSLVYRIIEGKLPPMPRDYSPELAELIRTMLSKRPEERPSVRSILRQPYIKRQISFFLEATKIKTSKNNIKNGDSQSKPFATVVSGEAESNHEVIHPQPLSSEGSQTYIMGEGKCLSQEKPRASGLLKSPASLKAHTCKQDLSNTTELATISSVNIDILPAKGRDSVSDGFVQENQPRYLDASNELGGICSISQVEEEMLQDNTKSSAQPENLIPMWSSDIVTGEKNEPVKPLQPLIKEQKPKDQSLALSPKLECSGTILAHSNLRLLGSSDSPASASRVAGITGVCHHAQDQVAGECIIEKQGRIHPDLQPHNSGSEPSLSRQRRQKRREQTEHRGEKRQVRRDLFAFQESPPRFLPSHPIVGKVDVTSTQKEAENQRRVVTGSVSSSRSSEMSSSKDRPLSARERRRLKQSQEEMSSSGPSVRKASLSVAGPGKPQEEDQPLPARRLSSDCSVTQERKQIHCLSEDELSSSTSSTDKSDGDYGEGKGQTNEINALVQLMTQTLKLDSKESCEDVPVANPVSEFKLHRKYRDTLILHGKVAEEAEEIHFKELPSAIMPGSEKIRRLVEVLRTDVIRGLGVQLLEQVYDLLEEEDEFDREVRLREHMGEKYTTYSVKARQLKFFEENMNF
Sequence of Serine/threonine-protein kinase DCLK1 (Homo sapiens) (O15075 whole entry): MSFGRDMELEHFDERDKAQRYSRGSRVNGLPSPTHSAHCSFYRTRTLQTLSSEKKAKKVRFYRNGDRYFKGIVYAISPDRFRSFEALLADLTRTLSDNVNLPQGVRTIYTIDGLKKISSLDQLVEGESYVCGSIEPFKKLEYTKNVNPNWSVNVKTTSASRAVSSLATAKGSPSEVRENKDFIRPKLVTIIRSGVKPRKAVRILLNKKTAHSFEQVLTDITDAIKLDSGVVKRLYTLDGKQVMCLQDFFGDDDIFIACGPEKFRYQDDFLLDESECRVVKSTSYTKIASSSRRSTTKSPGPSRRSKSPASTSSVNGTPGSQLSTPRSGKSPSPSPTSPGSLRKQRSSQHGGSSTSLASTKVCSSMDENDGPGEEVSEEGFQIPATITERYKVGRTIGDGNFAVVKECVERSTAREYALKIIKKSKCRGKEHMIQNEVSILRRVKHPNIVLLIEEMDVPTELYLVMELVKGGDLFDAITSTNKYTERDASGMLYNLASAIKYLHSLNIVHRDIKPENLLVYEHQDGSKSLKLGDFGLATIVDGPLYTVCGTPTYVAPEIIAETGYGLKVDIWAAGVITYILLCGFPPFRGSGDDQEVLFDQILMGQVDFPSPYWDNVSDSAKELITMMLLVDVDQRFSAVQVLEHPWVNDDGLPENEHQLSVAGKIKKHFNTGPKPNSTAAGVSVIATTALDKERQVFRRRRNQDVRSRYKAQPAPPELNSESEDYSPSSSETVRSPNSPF
Sequence of Dual specificity protein kinase CLK1 (Homo sapiens) (P49759 whole entry, looked up): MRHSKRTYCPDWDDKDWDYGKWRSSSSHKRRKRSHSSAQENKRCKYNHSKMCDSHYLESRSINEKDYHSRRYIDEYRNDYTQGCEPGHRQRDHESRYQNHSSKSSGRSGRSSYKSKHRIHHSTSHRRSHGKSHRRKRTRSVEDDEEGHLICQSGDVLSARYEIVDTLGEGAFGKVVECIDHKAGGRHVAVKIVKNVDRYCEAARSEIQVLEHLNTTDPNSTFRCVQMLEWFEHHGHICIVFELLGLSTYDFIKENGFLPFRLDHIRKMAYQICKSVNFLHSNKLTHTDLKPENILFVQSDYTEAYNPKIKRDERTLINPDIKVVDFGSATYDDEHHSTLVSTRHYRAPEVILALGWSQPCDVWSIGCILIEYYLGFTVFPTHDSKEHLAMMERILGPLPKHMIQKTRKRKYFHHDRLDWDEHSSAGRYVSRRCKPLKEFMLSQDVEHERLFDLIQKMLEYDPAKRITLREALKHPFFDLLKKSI
Sequence of Phosphorylase b kinase gamma catalytic chain, skeletal muscle/heart isoform (Homo sapiens) (Q16816 whole entry, looked up, canonical isoform): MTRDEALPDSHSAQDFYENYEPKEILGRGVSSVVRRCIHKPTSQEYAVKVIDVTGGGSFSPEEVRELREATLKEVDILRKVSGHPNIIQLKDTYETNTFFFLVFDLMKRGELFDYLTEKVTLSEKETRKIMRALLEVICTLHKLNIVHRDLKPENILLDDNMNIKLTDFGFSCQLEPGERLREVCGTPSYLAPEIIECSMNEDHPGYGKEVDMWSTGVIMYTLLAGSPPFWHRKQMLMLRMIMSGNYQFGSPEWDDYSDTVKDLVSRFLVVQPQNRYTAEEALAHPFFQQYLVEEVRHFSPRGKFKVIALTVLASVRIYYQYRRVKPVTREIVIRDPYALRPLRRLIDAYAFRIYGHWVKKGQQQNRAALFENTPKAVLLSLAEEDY
Sequence of Calcium/calmodulin-dependent protein kinase kinase 2 (Homo sapiens) (Q96RR4 2-588 limits assumed): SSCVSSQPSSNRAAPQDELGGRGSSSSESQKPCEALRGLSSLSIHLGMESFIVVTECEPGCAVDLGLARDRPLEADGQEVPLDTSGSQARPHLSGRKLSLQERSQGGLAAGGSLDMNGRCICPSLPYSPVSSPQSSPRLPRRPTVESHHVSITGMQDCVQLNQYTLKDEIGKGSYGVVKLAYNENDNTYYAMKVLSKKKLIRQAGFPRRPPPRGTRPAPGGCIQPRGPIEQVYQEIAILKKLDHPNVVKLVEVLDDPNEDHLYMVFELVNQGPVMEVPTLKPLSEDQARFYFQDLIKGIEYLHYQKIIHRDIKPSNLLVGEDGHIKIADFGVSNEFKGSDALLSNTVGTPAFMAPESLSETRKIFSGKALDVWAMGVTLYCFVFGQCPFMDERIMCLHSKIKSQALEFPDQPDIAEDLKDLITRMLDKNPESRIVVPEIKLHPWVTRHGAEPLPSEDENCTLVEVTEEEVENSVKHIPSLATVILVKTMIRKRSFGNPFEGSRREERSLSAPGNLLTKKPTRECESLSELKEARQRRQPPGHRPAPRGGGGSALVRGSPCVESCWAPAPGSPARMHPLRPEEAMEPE
Sequence of Ephrin type-A receptor 1 (Homo sapiens) (P21709 whole entry): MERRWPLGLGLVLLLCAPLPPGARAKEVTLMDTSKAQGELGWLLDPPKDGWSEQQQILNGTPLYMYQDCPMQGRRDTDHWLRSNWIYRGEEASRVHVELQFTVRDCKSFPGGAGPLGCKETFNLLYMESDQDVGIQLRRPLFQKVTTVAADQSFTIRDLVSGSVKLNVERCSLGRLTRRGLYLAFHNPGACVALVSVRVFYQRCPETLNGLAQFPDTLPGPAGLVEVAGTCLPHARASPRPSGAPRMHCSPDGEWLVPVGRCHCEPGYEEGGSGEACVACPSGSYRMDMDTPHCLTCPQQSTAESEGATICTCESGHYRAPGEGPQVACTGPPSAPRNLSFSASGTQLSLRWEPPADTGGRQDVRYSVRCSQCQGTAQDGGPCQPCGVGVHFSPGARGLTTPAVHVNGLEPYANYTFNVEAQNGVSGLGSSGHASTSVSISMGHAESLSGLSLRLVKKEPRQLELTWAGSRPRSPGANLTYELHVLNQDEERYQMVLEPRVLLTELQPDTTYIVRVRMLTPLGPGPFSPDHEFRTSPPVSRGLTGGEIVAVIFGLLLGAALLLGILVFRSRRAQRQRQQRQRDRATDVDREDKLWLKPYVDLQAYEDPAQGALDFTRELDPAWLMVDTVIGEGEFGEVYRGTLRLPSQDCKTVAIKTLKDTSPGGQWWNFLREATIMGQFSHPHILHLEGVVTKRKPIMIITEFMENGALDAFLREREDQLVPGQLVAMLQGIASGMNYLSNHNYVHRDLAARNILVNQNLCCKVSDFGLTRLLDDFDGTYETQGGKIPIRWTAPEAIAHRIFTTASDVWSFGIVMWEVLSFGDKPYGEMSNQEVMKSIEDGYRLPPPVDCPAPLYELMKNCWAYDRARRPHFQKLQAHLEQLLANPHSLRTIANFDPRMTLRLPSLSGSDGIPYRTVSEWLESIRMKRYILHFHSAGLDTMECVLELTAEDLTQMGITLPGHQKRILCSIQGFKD

O=C1CCc2cc(Nc3cc(OC4CCOCC4)c([N+](=O)[O-])cc3Cl)ccc2N1
inactive: residual activity [1] 93% | residual activity [2] 100% | residual activity [3] 100% | residual activity [4] 100% | residual activity [5] 100% | residual activity [6] 92% | residual activity [7] 84% | residual activity [8] 95% | residual activity [9] 100% | residual activity [10] 95% | residual activity [11] 96% | residual activity [12] 81% | residual activity [13] 75% | residual activity [14] 100% | residual activity [15] 100% | residual activity [16] 100% | residual activity [17] 70% | residual activity [18] 100% | residual activity [19] 98% | residual activity [20] 100% | residual activity [21] 72% | residual activity [22] 95% | residual activity [23] 100% | residual activity [24] 100% | residual activity [25] 88% | residual activity [26] 100% | residual activity [27] 100% | residual activity [28] 100% | residual activity [29] 75% | residual activity [30] 100% | residual activity [31] 79% | residual activity [32] 88% | residual activity [33] 98% | residual activity [34] 92% | residual activity [35] 87% | residual activity [36] 91% | residual activity [37] 100% | residual activity [38] 82% | residual activity [39] 100% | residual activity [40] 100% | residual activity [41] 100% | residual activity [42] 96% | inhibition [43] 16.5% | inhibition [44] 3.21% | inhibition [45] -2.6%

N#Cc1ccc(Nc2ccc3[nH]c(=O)[nH]c3c2)c(Cl)c1
inactive: residual activity [1] 100% | residual activity [2] 100% | residual activity [3] 100% | residual activity [4] 91% | residual activity [5] 100% | residual activity [6] 100% | residual activity [7] 100% | residual activity [8] 100% | residual activity [9] 100% | residual activity [10] 84% | residual activity [11] 81% | residual activity [12] 91% | residual activity [13] 100% | residual activity [14] 100% | residual activity [15] 100% | residual activity [16] 100% | residual activity [17] 100% | residual activity [18] 94% | residual activity [19] 94% | residual activity [20] 100% | residual activity [21] 96% | residual activity [22] 100% | residual activity [23] 100% | residual activity [24] 100% | residual activity [25] 95% | residual activity [26] 100% | residual activity [27] 100% | residual activity [28] 100% | residual activity [29] 92% | residual activity [30] 96% | residual activity [31] 100% | residual activity [32] 84% | residual activity [33] 86% | residual activity [34] 90% | residual activity [35] 82% | residual activity [36] 100% | residual activity [37] 100% | residual activity [38] 96% | residual activity [39] 100% | residual activity [40] 100% | residual activity [41] 100% | residual activity [42] 100% | inhibition [43] 12.6% | inhibition [44] 5.37% | inhibition [45] -2.02%
